In ChEMBL document CHEMBL3352819, “Structure-based optimization and biological evaluation of trisubstituted pyrazole as a core structure of potent ROS1 kinase inhibitors” (Bioorg Med Chem, 2014):
Blank lines part the entries; values can stand above or below the compound they belong to.

Experiments:
[1] = biological target: Proto-oncogene tyrosine-protein kinase ROS (Homo sapiens, UniProt P08922); experiment: Inhibition of ROS1 (unknown origin) assessed as remaining activity
[2] = biological target: AP2-associated protein kinase 1 (Homo sapiens) (UniProt Q2M2I8); experiment: Inhibition of AAK1 (unknown origin) assessed as residual activity at 10 uM relative to control
[3] = biological target: Atypical kinase COQ8A, mitochondrial (Homo sapiens) (UniProt Q8NI60); experiment: Inhibition of ADCK3 (unknown origin) assessed as residual activity at 10 uM relative to control
[4] = biological target: ALK tyrosine kinase receptor (Homo sapiens) (UniProt Q9UM73); experiment: Inhibition of ALK (unknown origin) assessed as residual activity at 20 uM relative to control
[5] = biological target: Aurora kinase A (Homo sapiens) (UniProt O14965); experiment: Inhibition of aurora A kinase (unknown origin) assessed as residual activity at 10 uM relative to control
[6] = biological target: BMP-2-inducible protein kinase (Homo sapiens) (UniProt Q9NSY1); experiment: Inhibition of BIKE (unknown origin) assessed as residual activity at 10 uM relative to control
[7] = biological target: Tyrosine-protein kinase Blk (Homo sapiens) (UniProt P51451); experiment: Inhibition of BLK (unknown origin) assessed as residual activity at 10 uM relative to control
[8] = biological target: Serine/threonine-protein kinase B-raf (Homo sapiens) (UniProt P15056); experiment: Inhibition of BRAF (unknown origin) assessed as residual activity at 10 uM relative to control
[9] = tested on: Serine/threonine-protein kinase B-raf (Homo sapiens), P15056 [V600E]; experiment: Inhibition of BRAF V600E mutant (unknown origin) assessed as residual activity at 10 uM relative to control
[10] = biological target: Ephrin type-B receptor 6 (Homo sapiens) (UniProt O15197); experiment: Inhibition of EPHB6 (unknown origin) assessed as residual activity at 10 uM relative to control
[11] = biological target: Receptor-type tyrosine-protein kinase FLT3 (Homo sapiens) (UniProt P36888); experiment: Inhibition of FLT3 (unknown origin) assessed as residual activity at 10 uM relative to control
[12] = tested on: Receptor-type tyrosine-protein kinase FLT3 (Homo sapiens), P36888 [N841I]; experiment: Inhibition of FLT3 N841I mutant (unknown origin) assessed as residual activity at 10 uM relative to control
[13] = biological target: Tyrosine-protein kinase HCK (Homo sapiens) (UniProt P08631); experiment: Inhibition of HCK (unknown origin) assessed as residual activity at 10 uM relative to control
[14] = biological target: Tyrosine-protein kinase JAK2 (Homo sapiens) (UniProt O60674); experiment: Inhibition of JAK2 (unknown origin) assessed as residual activity at 10 uM relative to control
[15] = biological target: Mast/stem cell growth factor receptor Kit (Homo sapiens) (UniProt P10721); experiment: Inhibition of KIT (unknown origin) assessed as residual activity at 10 uM relative to control
[16] = biological target: Leukocyte tyrosine kinase receptor (Homo sapiens) (UniProt P29376); experiment: Inhibition of LTK (unknown origin) assessed as residual activity at 10 uM relative to control
[17] = biological target: Hepatocyte growth factor receptor (Homo sapiens) (UniProt P08581); experiment: Inhibition of c-MET (unknown origin) assessed as residual activity at 20 uM relative to control
[18] = biological target: Phosphatidylinositol 4-phosphate 3-kinase C2 domain-containing subunit beta (Homo sapiens) (UniProt O00750); experiment: Inhibition of PIK3C2B (unknown origin) assessed as residual activity at 10 uM relative to control
[19] = biological target: Phosphatidylinositol 4,5-bisphosphate 3-kinase catalytic subunit alpha isoform (Homo sapiens) (UniProt P42336); experiment: Inhibition of PIK3CA (unknown origin) assessed as residual activity at 10 uM relative to control
[20] = tested on: Phosphatidylinositol 4,5-bisphosphate 3-kinase catalytic subunit alpha isoform (Homo sapiens), P42336 [E542K]; experiment: Inhibition of PIK3CA E542K mutant (unknown origin) assessed as residual activity at 10 uM relative to control
[21] = biological target: Phosphatidylinositol 4,5-bisphosphate 3-kinase catalytic subunit beta isoform (Homo sapiens) (UniProt P42338); experiment: Inhibition of PIK3CB (unknown origin) assessed as residual activity at 10 uM relative to control
[22] = biological target: Phosphatidylinositol 4,5-bisphosphate 3-kinase catalytic subunit delta isoform (Homo sapiens) (UniProt O00329); experiment: Inhibition of PIK3CD (unknown origin) assessed as residual activity at 10 uM relative to control
[23] = biological target: Serine/threonine-protein kinase PLK4 (Homo sapiens) (UniProt O00444); experiment: Inhibition of PLK4 (unknown origin) assessed as residual activity at 10 uM relative to control
[24] = biological target: Serine/threonine-protein kinase RIO2 (Homo sapiens) (UniProt Q9BVS4); experiment: Inhibition of RIOK2 (unknown origin) assessed as residual activity at 10 uM relative to control
[25] = biological target: Proto-oncogene tyrosine-protein kinase Src (Homo sapiens) (UniProt P12931); experiment: Inhibition of SRC (unknown origin) assessed as residual activity at 10 uM relative to control
[26] = biological target: Non-receptor tyrosine-protein kinase TNK1 (Homo sapiens) (UniProt Q13470); experiment: Inhibition of TNK1 (unknown origin) assessed as residual activity at 10 uM relative to control
[27] = biological target: Tyrosine-protein kinase TXK (Homo sapiens) (UniProt P42681); experiment: Inhibition of TXK (unknown origin) assessed as residual activity at 10 uM relative to control
[28] = biological target: Non-receptor tyrosine-protein kinase TYK2 (Homo sapiens) (UniProt P29597); experiment: Inhibition of TYK2 JH1 domain catalytic (unknown origin) assessed as residual activity at 10 uM relative to control
Homo sapiens = organism: Homo sapiens; experiment: Inhibition of ULK (unknown origin) assessed as residual activity at 10 uM relative to control
[29] = biological target: Mitogen-activated protein kinase kinase kinase 20 (Homo sapiens) (UniProt Q9NYL2); experiment: Inhibition of ZAK (unknown origin) assessed as residual activity at 10 uM relative to control

Sequence of Proto-oncogene tyrosine-protein kinase ROS (P08922 whole entry): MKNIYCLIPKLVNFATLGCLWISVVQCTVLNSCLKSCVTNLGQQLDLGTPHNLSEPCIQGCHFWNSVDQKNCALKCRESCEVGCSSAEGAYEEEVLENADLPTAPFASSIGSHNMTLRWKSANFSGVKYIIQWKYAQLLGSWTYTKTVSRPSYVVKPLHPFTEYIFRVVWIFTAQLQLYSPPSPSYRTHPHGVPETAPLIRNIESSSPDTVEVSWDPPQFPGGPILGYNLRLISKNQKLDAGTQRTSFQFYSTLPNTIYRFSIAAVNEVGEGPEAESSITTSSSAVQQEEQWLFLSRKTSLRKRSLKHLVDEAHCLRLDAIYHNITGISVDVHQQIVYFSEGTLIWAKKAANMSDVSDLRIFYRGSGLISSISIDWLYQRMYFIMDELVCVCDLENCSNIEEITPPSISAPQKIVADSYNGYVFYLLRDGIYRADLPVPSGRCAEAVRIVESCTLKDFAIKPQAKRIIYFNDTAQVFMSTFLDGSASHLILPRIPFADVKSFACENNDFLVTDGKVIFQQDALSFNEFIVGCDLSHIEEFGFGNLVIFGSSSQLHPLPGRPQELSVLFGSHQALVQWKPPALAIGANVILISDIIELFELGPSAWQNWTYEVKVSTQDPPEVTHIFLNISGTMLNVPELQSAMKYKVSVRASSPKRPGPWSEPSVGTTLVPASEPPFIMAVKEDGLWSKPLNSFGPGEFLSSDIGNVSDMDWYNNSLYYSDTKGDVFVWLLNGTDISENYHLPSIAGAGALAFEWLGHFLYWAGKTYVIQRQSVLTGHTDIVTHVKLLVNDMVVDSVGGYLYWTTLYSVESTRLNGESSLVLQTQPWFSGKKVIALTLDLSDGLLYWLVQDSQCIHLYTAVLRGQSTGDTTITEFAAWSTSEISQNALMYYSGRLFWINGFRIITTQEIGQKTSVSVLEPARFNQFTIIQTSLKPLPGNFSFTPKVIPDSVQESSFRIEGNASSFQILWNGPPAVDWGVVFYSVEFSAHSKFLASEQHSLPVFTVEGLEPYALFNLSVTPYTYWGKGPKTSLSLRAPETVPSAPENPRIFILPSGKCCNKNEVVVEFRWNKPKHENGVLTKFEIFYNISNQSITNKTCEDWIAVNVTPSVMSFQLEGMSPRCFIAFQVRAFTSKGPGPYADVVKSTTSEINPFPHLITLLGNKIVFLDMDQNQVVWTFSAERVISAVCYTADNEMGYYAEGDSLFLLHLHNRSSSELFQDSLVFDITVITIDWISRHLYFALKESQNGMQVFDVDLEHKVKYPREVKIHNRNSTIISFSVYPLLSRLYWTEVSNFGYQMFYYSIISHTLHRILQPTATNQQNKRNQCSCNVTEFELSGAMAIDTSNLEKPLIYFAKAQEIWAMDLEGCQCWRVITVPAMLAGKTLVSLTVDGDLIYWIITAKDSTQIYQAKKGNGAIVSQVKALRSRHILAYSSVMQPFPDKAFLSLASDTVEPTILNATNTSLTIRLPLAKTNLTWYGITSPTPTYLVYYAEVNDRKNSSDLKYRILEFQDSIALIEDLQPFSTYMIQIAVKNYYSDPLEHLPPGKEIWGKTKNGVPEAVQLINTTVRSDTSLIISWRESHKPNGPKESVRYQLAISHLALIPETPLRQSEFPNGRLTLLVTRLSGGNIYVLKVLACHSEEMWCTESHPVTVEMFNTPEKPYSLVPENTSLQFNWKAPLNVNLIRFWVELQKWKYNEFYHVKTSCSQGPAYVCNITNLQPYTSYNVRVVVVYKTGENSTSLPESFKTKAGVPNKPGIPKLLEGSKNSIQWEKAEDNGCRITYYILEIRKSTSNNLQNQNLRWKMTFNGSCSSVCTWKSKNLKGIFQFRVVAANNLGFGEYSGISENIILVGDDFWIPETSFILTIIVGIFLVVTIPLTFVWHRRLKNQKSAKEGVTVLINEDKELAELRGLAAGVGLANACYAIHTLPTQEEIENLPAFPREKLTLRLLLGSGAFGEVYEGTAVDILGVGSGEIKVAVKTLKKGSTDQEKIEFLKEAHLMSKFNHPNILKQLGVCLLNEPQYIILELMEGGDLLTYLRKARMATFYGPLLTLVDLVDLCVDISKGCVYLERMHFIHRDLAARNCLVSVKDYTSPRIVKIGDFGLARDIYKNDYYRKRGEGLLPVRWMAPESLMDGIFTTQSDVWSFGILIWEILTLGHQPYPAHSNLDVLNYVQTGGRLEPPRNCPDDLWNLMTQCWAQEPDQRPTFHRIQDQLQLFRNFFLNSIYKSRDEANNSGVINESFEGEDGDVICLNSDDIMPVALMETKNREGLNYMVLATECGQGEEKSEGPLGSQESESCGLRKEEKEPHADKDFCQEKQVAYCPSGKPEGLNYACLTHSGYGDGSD
Sequence of Non-receptor tyrosine-protein kinase TNK1 (Homo sapiens) (Q13470 whole entry): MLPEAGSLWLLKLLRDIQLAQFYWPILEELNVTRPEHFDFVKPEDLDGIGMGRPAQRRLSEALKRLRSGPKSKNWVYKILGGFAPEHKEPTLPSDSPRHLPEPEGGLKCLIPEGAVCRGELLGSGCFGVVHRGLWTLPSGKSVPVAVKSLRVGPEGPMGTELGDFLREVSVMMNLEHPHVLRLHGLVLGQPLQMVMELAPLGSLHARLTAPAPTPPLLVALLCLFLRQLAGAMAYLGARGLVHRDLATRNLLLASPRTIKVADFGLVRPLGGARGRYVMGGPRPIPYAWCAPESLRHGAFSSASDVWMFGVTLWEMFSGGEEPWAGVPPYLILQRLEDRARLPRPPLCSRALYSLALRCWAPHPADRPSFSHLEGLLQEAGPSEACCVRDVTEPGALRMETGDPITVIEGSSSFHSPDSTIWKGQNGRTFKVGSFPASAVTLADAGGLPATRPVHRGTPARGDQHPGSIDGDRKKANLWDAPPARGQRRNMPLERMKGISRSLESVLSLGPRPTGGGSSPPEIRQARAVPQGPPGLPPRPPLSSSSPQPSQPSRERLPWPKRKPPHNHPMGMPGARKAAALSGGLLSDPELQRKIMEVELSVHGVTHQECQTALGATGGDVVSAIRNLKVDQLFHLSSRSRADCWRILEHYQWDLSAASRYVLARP
Sequence of Phosphatidylinositol 4,5-bisphosphate 3-kinase catalytic subunit delta isoform (Homo sapiens) (O00329 whole entry, canonical isoform): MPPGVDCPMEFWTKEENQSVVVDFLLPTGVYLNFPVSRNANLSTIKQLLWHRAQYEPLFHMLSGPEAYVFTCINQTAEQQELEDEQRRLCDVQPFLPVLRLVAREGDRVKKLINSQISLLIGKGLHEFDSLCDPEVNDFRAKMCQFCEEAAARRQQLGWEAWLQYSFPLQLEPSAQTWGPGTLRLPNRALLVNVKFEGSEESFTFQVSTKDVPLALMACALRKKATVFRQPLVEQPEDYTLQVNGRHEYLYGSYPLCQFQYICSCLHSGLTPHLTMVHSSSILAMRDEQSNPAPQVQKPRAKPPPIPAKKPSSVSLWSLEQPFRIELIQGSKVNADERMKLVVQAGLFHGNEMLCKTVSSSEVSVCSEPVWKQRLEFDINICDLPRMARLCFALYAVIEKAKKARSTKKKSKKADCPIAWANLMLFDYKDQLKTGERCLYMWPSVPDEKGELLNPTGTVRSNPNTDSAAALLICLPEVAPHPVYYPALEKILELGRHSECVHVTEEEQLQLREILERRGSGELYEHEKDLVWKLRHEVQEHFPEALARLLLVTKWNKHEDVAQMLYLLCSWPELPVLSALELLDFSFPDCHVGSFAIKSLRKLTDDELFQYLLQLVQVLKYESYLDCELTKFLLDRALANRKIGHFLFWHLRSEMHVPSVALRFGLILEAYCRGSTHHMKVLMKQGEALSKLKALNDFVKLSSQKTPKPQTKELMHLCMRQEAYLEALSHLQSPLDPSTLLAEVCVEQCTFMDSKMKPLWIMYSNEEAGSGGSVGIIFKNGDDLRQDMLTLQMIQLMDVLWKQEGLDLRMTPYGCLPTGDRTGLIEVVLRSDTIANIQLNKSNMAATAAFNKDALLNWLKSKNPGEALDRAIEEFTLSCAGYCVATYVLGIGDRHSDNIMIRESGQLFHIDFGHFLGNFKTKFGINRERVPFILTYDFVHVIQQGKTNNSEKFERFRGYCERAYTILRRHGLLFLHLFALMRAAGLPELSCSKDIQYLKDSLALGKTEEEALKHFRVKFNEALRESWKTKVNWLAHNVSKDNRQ
Sequence of Tyrosine-protein kinase TXK (Homo sapiens) (P42681 whole entry, the tested form may be a part): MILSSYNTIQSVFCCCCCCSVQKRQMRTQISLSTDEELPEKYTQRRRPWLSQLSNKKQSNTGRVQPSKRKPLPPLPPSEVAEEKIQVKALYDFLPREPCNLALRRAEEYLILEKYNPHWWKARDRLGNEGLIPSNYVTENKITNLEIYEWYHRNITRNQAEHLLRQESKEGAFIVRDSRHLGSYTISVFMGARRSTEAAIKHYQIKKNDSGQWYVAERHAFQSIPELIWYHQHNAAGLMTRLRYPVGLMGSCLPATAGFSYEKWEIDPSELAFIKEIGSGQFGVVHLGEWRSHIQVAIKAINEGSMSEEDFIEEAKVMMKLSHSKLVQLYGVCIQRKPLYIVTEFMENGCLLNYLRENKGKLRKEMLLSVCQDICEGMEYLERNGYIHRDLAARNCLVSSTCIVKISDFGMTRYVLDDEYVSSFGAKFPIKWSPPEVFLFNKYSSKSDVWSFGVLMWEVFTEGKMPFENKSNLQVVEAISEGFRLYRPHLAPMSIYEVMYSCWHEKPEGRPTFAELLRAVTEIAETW
Sequence of Proto-oncogene tyrosine-protein kinase Src (Homo sapiens) (P12931 2-536 limits assumed): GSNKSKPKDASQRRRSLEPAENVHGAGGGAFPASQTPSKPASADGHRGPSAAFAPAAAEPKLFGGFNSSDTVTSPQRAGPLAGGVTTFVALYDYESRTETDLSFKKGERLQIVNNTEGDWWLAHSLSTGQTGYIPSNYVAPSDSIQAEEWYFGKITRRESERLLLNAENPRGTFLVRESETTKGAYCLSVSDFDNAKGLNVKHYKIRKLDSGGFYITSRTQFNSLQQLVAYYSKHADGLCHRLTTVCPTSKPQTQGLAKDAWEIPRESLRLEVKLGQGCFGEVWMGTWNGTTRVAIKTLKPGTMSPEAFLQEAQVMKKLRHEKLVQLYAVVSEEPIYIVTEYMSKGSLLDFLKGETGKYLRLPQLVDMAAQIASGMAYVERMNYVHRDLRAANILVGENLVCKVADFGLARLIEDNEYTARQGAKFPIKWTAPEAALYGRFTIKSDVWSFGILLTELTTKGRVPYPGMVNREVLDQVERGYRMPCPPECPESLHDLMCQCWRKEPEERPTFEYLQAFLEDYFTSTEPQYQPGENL

SMILES: COc1cc(C)cc(-c2nn(C)cc2-c2cc(N3CC(O)C3)nc(-c3cccnc3)n2)c1
IC50 [1]: 108 nM

SMILES: Cc1cc(O)cc(-c2nn(C)cc2-c2cc(NCCCCO)nc(-c3cccnc3)n2)c1
IC50 [1]: 133 nM

SMILES: Cc1cc(O)cc(-c2nn(C)cc2-c2cc(NC[C@H](C)O)nc(-c3cccnc3)n2)c1
IC50 [1]: 105 nM

SMILES: COc1cc(C)cc(-c2c(-c3cc(NCCCCO)nc(-c4cccnc4)n3)cnn2C)c1
IC50 [1]: 138 nM

SMILES: COc1cc(C)cc(-c2nn(C)cc2-c2cc(NC[C@H](C)O)nc(-c3cccnc3)n2)c1
IC50 [1]: 241 nM

SMILES: Cc1cc(O)cc(-c2c(-c3cc(NC[C@H](C)O)nc(-c4cccnc4)n3)cnn2C)c1
IC50 [1]: 139 nM

SMILES: COc1cc(C)cc(-c2c(-c3cc(NC[C@H](C)O)nc(-c4cccnc4)n3)cnn2C)c1
IC50 [1]: 283 nM

The remaining lines, values ahead:

IC50 [1]: 74.2 nM
SMILES: COc1cc(C)cc(-c2c(-c3cc(N4CC(O)C4)nc(-c4cccnc4)n3)cnn2C)c1

IC50 [1]: 63.8 nM
SMILES: COc1cc(C)cc(-c2nn(C)cc2-c2cc(NCCCCO)nc(-c3cccnc3)n2)c1

IC50 [1]: 59.1 nM
SMILES: COc1cc(C)cc(-c2nn(C)cc2-c2cc(N3CCOCC3)nc(-c3cccnc3)n2)c1

IC50 [1]: 56.6 nM
SMILES: Cc1cc(O)cc(-c2c(-c3cc(N4CC(O)C4)nc(-c4cccnc4)n3)cnn2C)c1

IC50 [1]: 13.6 nM | Activity [2]: 18% | Activity [3]: 15% | Activity [4]: 31% | Activity [5]: 31% | Activity [6]: 11% | Activity [7]: 20% | Activity [8]: 30% | Activity [9]: 18% | Activity [10]: 4.2% | Activity [11]: 3% | Activity [12]: 3.3% | Activity [13]: 28% | Activity [14]: 3% | Activity [15]: 20% | Activity [16]: 17% | Activity [17]: 51% | Activity [18]: 4% | Activity [19]: 13% | Activity [20]: 14% | Activity [21]: 7.2% | Activity [22]: 4.4% | Activity [23]: 6.8% | Activity [24]: 10% | Activity [25]: 25% | Activity [26]: 9.2% | Activity [27]: 9.6% | Activity [28]: 2.6% | Activity (Homo sapiens): 71% | Activity [29]: 92%
SMILES: Cc1cc(O)cc(-c2nn(C)cc2-c2cc(N3CCOCC3)nc(-c3cccnc3)n2)c1

IC50 [1]: 104 nM
SMILES: COc1cc(C)cc(-c2c(-c3cc(N4CCOCC4)nc(-c4cccnc4)n3)cnn2C)c1

IC50 [1]: 91.5 nM
SMILES: Cc1cc(O)cc(-c2c(-c3cc(N4CCOCC4)nc(-c4cccnc4)n3)cnn2C)c1

IC50 [1]: 86.5 nM
SMILES: Cc1cc(O)cc(-c2nn(C)cc2-c2cc(N3CC(O)C3)nc(-c3cccnc3)n2)c1

IC50 [1]: 25.4 nM
SMILES: Cc1cc(O)cc(-c2c(-c3cc(NCCCCO)nc(-c4cccnc4)n3)cnn2C)c1
